Test results: patent publication US20260144788A1, “COMPOUND FOR SHP2 PROTEIN DEGRADATION AND MEDICAL USES THEREOF” (UBIX THERAPEUTICS, INC., priority 2022, published 2026)

Biological target: T1, SHP2 protein (Homo sapiens, UniProt Q06124)
T1 sequence (Q06124 1-593): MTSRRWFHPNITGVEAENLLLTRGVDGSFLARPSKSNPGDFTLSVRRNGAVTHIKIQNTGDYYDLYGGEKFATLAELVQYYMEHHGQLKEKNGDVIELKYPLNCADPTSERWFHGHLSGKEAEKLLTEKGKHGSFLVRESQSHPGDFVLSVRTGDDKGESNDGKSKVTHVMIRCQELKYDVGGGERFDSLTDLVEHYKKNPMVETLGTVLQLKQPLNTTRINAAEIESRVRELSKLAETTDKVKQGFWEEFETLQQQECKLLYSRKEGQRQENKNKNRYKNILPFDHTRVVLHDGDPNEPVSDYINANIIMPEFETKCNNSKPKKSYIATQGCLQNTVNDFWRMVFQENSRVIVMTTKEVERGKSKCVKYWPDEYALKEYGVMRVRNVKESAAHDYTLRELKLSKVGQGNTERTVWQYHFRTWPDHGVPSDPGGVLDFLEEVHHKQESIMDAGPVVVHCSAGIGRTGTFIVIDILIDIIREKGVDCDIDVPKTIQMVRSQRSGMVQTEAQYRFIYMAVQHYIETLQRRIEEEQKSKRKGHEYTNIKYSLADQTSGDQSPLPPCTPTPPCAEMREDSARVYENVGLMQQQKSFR
Assay: Measurement of SHP2 protein degradation in NCI-H358 cells (western blotting)
Format: cell-based
Design: endogenous in cells; host or cells: NCI-H358
Settings: harvested after 24 hours
Outline: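 H358 cells in RPMI1640/25 mM HEPES/10% FBS, cultured 24 h, then exposed to compound at final 0.001, 0.01 and 0.1 μM for 24 h against a DMSO control. Lysates were normalised for protein by BCA and probed by western blot for SHP2, with GAPDH as loading control.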

Row | Compound | SHP2% degradation (0.01 μM) | SHP2% degradation (0.1 μM)
1 | Cc1ncsc1-c1ccc(CNC(=O)[C@@H]2C[C@@H](O)CN2C(=O)[C@H](C(C)C)n2cc(C3CC3)nn2)c(OC2CCN(C(=O)C3CCN(c4nccc(Sc5cnc(N6CCC(C)(CN)CC6)cn5)c4Cl)CC3)CC2)c1 [Example 101, (2S,4R)—N-(2-((1-(1-(4-((5-(4-(aminomethyl)-4-methylpiperidin-1-yl)pyrazin-2-yl)thio)-3-chloropyridin-2-yl)piperidine-4-carbonyl)piperidin-4-yl)oxy)-4-(4-methylthiazol-5-yl)benzyl)-1-((S)-2-(4-cyclopropyl-1H-1,2,3-triazol-1-yl)-3-methylbutanoyl)-4-hydroxypyrrolidine-2-carboxamide] | 96.3% | 97.4%
2 | Cc1ncsc1-c1ccc(CNC(=O)[C@@H]2C[C@@H](O)CN2C(=O)[C@H](C(C)C)n2cc(C3CC3)nn2)c(OC2CCN(C(=O)C3CCN(c4nccc(Sc5cnc(N6CCC(C)(N)CC6)cn5)c4Cl)CC3)CC2)c1 [Example 102, (2S,4R)—N-(2-((1-(1-(4-((5-(4-amino-4-methylpiperidin-1-yl)pyrazin-2-yl)thio)-3-chloropyridin-2-yl)piperidine-4-carbonyl)piperidin-4-yl)oxy)-4-(4-methylthiazol-5-yl)benzyl)-1-((S)-2-(4-cyclopropyl-1H-1,2,3-triazol-1-yl)-3-methylbutanoyl)-4-hydroxypyrrolidine-2-carboxamide] | 99.4% | 99.8%
3 | Cc1ncsc1-c1ccc(CNC(=O)[C@@H]2C[C@@H](O)CN2C(=O)[C@H](C(C)C)n2cc(C3CC3)nn2)c(OC2CCN(C(=O)C3CCN(c4nccc(Sc5cnc(N6CCC7(CC6)CO[C@@H](C)[C@H]7N)cn5)c4Cl)CC3)CC2)c1 [Example 103, (2S,4R)—N-(2-((1-(1-(4-((5-((3S,4S)-4-amino-3-methyl-2-oxa-8-azaspiro[4.5]decan-8-yl)pyrazin-2-yl)thio)-3-chloropyridin-2-yl)piperidine-4-carbonyl)piperidin-4-yl)oxy)-4-(4-methylthiazol-5-yl)benzyl)-1-((S)-2-(4-cyclopropyl-1H-1,2,3-triazol-1-yl)-3-methylbutanoyl)-4-hydroxypyrrolidine-2-carboxamide] | 99.9% | 99.7%
4 | Cc1ncsc1-c1ccc(CNC(=O)[C@@H]2C[C@@H](O)CN2C(=O)[C@H](C(C)C)n2cc(C3CC3)nn2)c(OC2CCN(C(=O)C3CCN(c4nccc(Sc5cnc(N6CCC(C)(CN)CC6)c(CO)n5)c4Cl)CC3)CC2)c1 [Example 104, (2S,4R)—N-(2-((1-(1-(4-((5-(4-(aminomethyl)-4-methylpiperidin-1-yl)-6-(hydroxymethyl)pyrazin-2-yl)thio)-3-chloropyridin-2-yl)piperidine-4-carbonyl)piperidin-4-yl)oxy)-4-(4-methylthiazol-5-yl)benzyl)-1-((S)-2-(4-cyclopropyl-1H-1,2,3-triazol-1-yl)-3-methylbutanoyl)-4-hydroxypyrrolidine-2-carboxamide] | 98.6% | 98.0%
5 | Cc1ncsc1-c1ccc(CNC(=O)[C@@H]2C[C@@H](O)CN2C(=O)[C@H](C(C)C)n2cc(C3CC3)nn2)c(OC2CCN(C(=O)C3CCN(c4nccc(Sc5cnc(N6CCC(C)(N)CC6)c(CO)n5)c4Cl)CC3)CC2)c1 [Example 105, (2S,4R)—N-(2-((1-(1-(4-((5-(4-amino-4-methylpiperidin-1-yl)-6-(hydroxymethyl)pyrazin-2-yl)thio)-3-chloropyridin-2-yl)piperidine-4-carbonyl)piperidin-4-yl)oxy)-4-(4-methylthiazol-5-yl)benzyl)-1-((S)-2-(4-cyclopropyl-1H-1,2,3-triazol-1-yl)-3-methylbutanoyl)-4-hydroxypyrrolidine-2-carboxamide] | 98.4% | 97.9%
6 | Cc1ncsc1-c1ccc(CNC(=O)[C@@H]2C[C@@H](O)CN2C(=O)[C@H](C(C)C)n2cc(C3CC3)nn2)c(OC2CCN(C(=O)C3CCN(c4nccc(Sc5cnc(N6CCC7(CC6)CO[C@@H](C)[C@H]7N)c(CO)n5)c4Cl)CC3)CC2)c1 [Example 106, (2S,4R)—N-(2-((1-(1-(4-((5-((3S,4S)-4-amino-3-methyl-2-oxa-8-azaspiro[4.5]decan-8-yl)-6-(hydroxymethyl)pyrazin-2-yl)thio)-3-chloropyridin-2-yl)piperidine-4-carbonyl)piperidin-4-yl)oxy)-4-(4-methylthiazol-5-yl)benzyl)-1-((S)-2-(4-cyclopropyl-1H-1,2,3-triazol-1-yl)-3-methylbutanoyl)-4-hydroxypyrrolidine-2-carboxamide] | 99.1% | 97.3%
7 | Cc1ncsc1-c1ccc(CNC(=O)[C@@H]2C[C@@H](O)CN2C(=O)[C@@H](n2cc(C3CC3)nn2)C(C)(C)C)c(OC2CCN(C(=O)C3CCN(c4nccc(Sc5cnc(N6CCC(C)(CN)CC6)cn5)c4Cl)CC3)CC2)c1 [Example 107, (2S,4R)—N-(2-((1-(1-(4-((5-(4-(aminomethyl)-4-methylpiperidin-1-yl)pyrazin-2-yl)thio)-3-chloropyridin-2-yl)piperidine-4-carbonyl)piperidin-4-yl)oxy)-4-(4-methylthiazol-5-yl)benzyl)-1-((S)-2-(4-cyclopropyl-1H-1,2,3-triazol-1-yl)-3,3-dimethylbutanoyl)-4-hydroxypyrrolidine-2-carboxamide] | 96.5% | 99.2%
8 | Cc1cn([C@H](C(=O)N2C[C@H](O)C[C@H]2C(=O)NCc2ccc(-c3scnc3C)cc2OC2CCN(C(=O)C3CCN(c4nccc(Sc5cnc(N6CCC(C)(CN)CC6)c(CO)n5)c4Cl)CC3)CC2)C(C)C)nn1 [Example 108, (2S,4R)—N-(2-((1-(1-(4-((5-(4-(aminomethyl)-4-methylpiperidin-1-yl)-6-(hydroxymethyl)pyrazin-2-yl)thio)-3-chloropyridin-2-yl)piperidine-4-carbonyl)piperidin-4-yl)oxy)-4-(4-methylthiazol-5-yl)benzyl)-4-hydroxy-1-((S)-3-methyl-2-(4-methyl-1H-1,2,3-triazol-1-yl)butanoyl)pyrrolidine-2-carboxamide] | 99.1% | 99.6%
9 | Cc1cn([C@H](C(=O)N2C[C@H](O)C[C@H]2C(=O)NCc2ccc(-c3scnc3C)cc2OC2CCN(C(=O)C3CCN(c4nccc(Sc5cnc(N6CCC(C)(N)CC6)c(CO)n5)c4Cl)CC3)CC2)C(C)C)nn1 [Example 109, (2S,4R)—N-(2-((1-(1-(4-((5-(4-amino-4-methylpiperidin-1-yl)-6-(hydroxymethyl)pyrazin-2-yl)thio)-3-chloropyridin-2-yl)piperidine-4-carbonyl)piperidin-4-yl)oxy)-4-(4-methylthiazol-5-yl)benzyl)-4-hydroxy-1-((S)-3-methyl-2-(4-methyl-1H-1,2,3-triazol-1-yl)butanoyl)pyrrolidine-2-carboxamide] | 99.0% | 99.4%
10 | Cc1cn([C@H](C(=O)N2C[C@H](O)C[C@H]2C(=O)NCc2ccc(-c3scnc3C)cc2OC2CCN(C(=O)C3CCN(c4nccc(Sc5cnc(N6CCC7(CC6)CO[C@@H](C)[C@H]7N)c(CO)n5)c4Cl)CC3)CC2)C(C)C)nn1 [Example 110, (2S,4R)—N-(2-((1-(1-(4-((5-((3S,4S)-4-amino-3-methyl-2-oxa-8-azaspiro[4.5]decan-8-yl)-6-(hydroxymethyl)pyrazin-2-yl)thio)-3-chloropyridin-2-yl)piperidine-4-carbonyl)piperidin-4-yl)oxy)-4-(4-methylthiazol-5-yl)benzyl)-4-hydroxy-1-((S)-3-methyl-2-(4-methyl-1H-1,2,3-triazol-1-yl)butanoyl)pyrrolidine-2-carboxamide] | 99.8% | 99.8%
11 | Cc1cn([C@H](C(=O)N2C[C@H](O)C[C@H]2C(=O)NCc2ccccc2OC2CCN(C(=O)C3CCN(c4nccc(Sc5cnc(N6CCC7(CC6)CO[C@@H](C)[C@H]7N)c(CO)n5)c4Cl)CC3)CC2)C(C)C)nn1 [Example 111, (2S,4R)—N-(2-((1-(1-(4-((5-((3S,4S)-4-amino-3-methyl-2-oxa-8-azaspiro[4.5]decan-8-yl)-6-(hydroxymethyl)pyrazin-2-yl)thio)-3-chloropyridin-2-yl)piperidine-4-carbonyl)piperidin-4-yl)oxy)benzyl)-4-hydroxy-1-((S)-3-methyl-2-(4-methyl-1H-1,2,3-triazol-1-yl)butanoyl)pyrrolidine-2-carboxamide] | 98.0% | 99.9%
12 | Cc1cn([C@H](C(=O)N2C[C@H](O)C[C@H]2C(=O)NCc2ccc(Cl)cc2OC2CCN(C(=O)C3CCN(c4nccc(Sc5cnc(N6CCC7(CC6)CO[C@@H](C)[C@H]7N)c(CO)n5)c4Cl)CC3)CC2)C(C)C)nn1 [Example 112, (2S,4R)—N-(2-((1-(1-(4-((5-((3S,4S)-4-amino-3-methyl-2-oxa-8-azaspiro[4.5]decan-8-yl)-6-(hydroxymethyl)pyrazin-2-yl)thio)-3-chloropyridin-2-yl)piperidine-4-carbonyl)piperidin-4-yl)oxy)-4-chlorobenzyl)-4-hydroxy-1-((S)-3-methyl-2-(4-methyl-1H-1,2,3-triazol-1-yl)butanoyl)pyrrolidine-2-carboxamide] | 93.8% | 99.7%
